According to ChEMBL document CHEMBL1141767, “Lignans from bark of Larix olgensis var. koreana” (J Nat Prod, 2005):
In brackets after ≈: the same amount, converted by molar mass.

Columns and labels:
Type in all cases: functional, cell-based
K562 = experiment: Cytotoxicity against human K562 cells after 72 hrs by MTT assay; conditions: K562, 72 h
[1] = Cytotoxicity against human SGH44 cells after 72 hrs by MTT assay; conditions: SGH44, 72 h
HCT-8 = experiment: Cytotoxicity against human HCT8 cells after 72 hrs by MTT assay; conditions: HCT-8, 72 h
A549 = experiment: Cytotoxicity against human A549 cells after 72 hrs by MTT assay; conditions: A549, 72 h
[2] = Cytotoxicity against human PC3M cells after 72 hrs by MTT assay; conditions: PC-3M

Molecule `COc1cc(C[C@@H]2CO[C@@H](c3ccc(O)c(OC)c3)[C@@H]2COC(=O)/C=C/c2ccc(O)cc2)ccc1O` has an IC50 (K562) of 2.9 µg/mL (≈ 5.72 µM), an IC50 [1] of 21.4 µg/mL (≈ 42.2 µM) and an IC50 (HCT-8) of 32.9 µg/mL (≈ 64.9 µM). For the same molecule, the IC50 (A549) was 33.8 µg/mL (≈ 66.7 µM) and the IC50 [2] was 28 µg/mL (≈ 55.3 µM).
